Source: US11267812B2 (Mirati Therapeutics, Inc., priority 2016, dated 2022)

System: Phospho-ERK in NCI-H358 cells expressing KRas G12C
Assay: Cellular inhibition of KRas G12C by Phospho-ERK measurement in NCI-H358 cells
Assay type: cell-based
Conditions: Homo sapiens; NCI-H358 cells, 3 hours compound treatment; read-out: IC50 (pERK(Thr202/Tyr204) normalized with GAPDH)
How it was run: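 After 8–12 h attachment, NCI-H358 cells were treated with compounds for 3 h (0.5% DMSO final), fixed, methanol-permeabilized and immunostained. pERK(Thr202/Tyr204) was read by infrared imaging and normalized to GAPDH as percent of DMSO control. IC50 came from a 4-parameter fit.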

| Compound | IC50 [nM] |
| --- | --- |
| C=CC(=O)N1CCN(c2nc(OC[C@@H]3CCCN3CC)nc3c2CCN(c2cc(O)cc4ccccc24)C3)CC1 [Example 197, (S)-1-(4-(2-((1-ethylpyrrolidin-2-yl)methoxy)-7-(3-hydroxynaphthalen-1-yl)-5,6,7,8-tetrahydropyrido[3,4-d]pyrimidin-4-yl)piperazin-1-yl)prop-2-en-1-one] | 1 to 1000 |
| C=CC(=O)N1CCN(c2nc(OC[C@@H]3CCCN3C)nc3c2CCN(c2cc(O)cc4ccccc24)C3)[C@@H](C)C1 [Example 202, 1-((S)-4-(7-(3-hydroxynaphthalen-1-yl)-2-(((S)-1-methylpyrrolidin-2-yl)methoxy)-5,6,7,8-tetrahydropyrido[3,4-d]pyrimidin-4-yl)-3-methylpiperazin-1-yl)prop-2-en-1-one] | 1 to 1000 |
| C=CC(=O)N1CCN(c2nc(OC[C@H]3CCCN3C)nc3c2CCN(c2cc(O)cc4ccccc24)C3)[C@@H](C)C1 [Example 203, 1-((S)-4-(7-(3-hydroxynaphthalen-1-yl)-2-(((R)-1-methylpyrrolidin-2-yl)methoxy)-5,6,7,8-tetrahydropyrido[3,4-d]pyrimidin-4-yl)-3-methylpiperazin-1-yl)prop-2-en-1-one] | 1 to 1000 |
| C=CC(=O)N1CCN(c2nc(OC[C@@H]3CCCN3C)nc3c2CCN(c2ccccc2OC(F)(F)F)C3)CC1CC#N (stereo partly drawn) [Example 211, 2-(1-acryloyl-4-(2-(((S)-1-methylpyrrolidin-2-yl)methoxy)-7-(2-(trifluoromethoxy)phenyl)-5,6,7,8-tetrahydropyrido[3,4-d]pyrimidin-4-yl)piperazin-2-yl)acetonitrile] | 1 to 1000 |
| C=CC(=O)N1CCN(c2nc(OC[C@@H]3CCCN3C)nc3c2CCN(c2cnccc2C(F)(F)F)C3)CC1CC#N (stereo partly drawn) [Example 212, 2-(1-acryloyl-4-(2-(((S)-1-methylpyrrolidin-2-yl)methoxy)-7-(4-(trifluoromethyl)pyridin-3-yl)-5,6,7,8-tetrahydropyrido[3,4-d]pyrimidin-4-yl)piperazin-2-yl)acetonitrile] | 1 to 1000 |
| C=CC(=O)N1CCN(c2nc(OC[C@@H]3C[C@@H](O)CN3C)nc3c2CCN(c2cccc4ccccc24)C3)CC1CC#N (stereo partly drawn) [Example 218, 2-(1-acryloyl-4-(2-(((2S,4R)-4-hydroxy-1-methylpyrrolidin-2-yl)methoxy)-7-(naphthalen-1-yl)-5,6,7,8-tetrahydropyrido[3,4-d]pyrimidin-4-yl)piperazin-2-yl)acetonitrile] | 1 to 1000 |
| C=CC(=O)N1CCN(c2nc(OC[C@@H]3C[C@H](F)CN3C)nc3c2CCN(c2cccc4ccccc24)C3)CC1CC#N (stereo partly drawn) [Example 221, 2-(1-acryloyl-4-(2-(((2S,4S)-4-fluoro-1-methylpyrrolidin-2-yl)methoxy)-7-(naphthalen-1-yl)-5,6,7,8-tetrahydropyrido[3,4-d]pyrimidin-4-yl)piperazin-2-yl)acetonitrile] | 1 to 1000 |
| C=CC(=O)N1CCN(c2nc(OC[C@@H]3C[C@H](OC)CN3C)nc3c2CCN(c2cccc4ccccc24)C3)CC1CC#N (stereo partly drawn) [Example 222, 2-(1-acryloyl-4-(2-(((2S,4S)-4-methoxy-1-methylpyrrolidin-2-yl)methoxy)-7-(naphthalen-1-yl)-5,6,7,8-tetrahydropyrido[3,4-d]pyrimidin-4-yl)piperazin-2-yl)acetonitrile] | 1 to 1000 |
| C=CC(=O)N1CCN(c2nc(OC[C@@H]3CN(C)CCN3)nc3c2CCN(c2cccc4ccccc24)C3)CC1CC#N (stereo partly drawn) [Example 223, 2-(1-acryloyl-4-(2-(((S)-4-methylpiperazin-2-yl)methoxy)-7-(naphthalen-1-yl)-5,6,7,8-tetrahydropyrido[3,4-d]pyrimidin-4-yl)piperazin-2-yl)acetonitrile] | 1 to 1000 |
| C=CC(=O)N1CCN(c2nc(OC[C@H]3CN(C)CCN3)nc3c2CCN(c2cccc4ccccc24)C3)CC1CC#N (stereo partly drawn) [Example 224, 2-(1-acryloyl-4-(2-(((R)-4-methylpiperazin-2-yl)methoxy)-7-(naphthalen-1-yl)-5,6,7,8-tetrahydropyrido[3,4-d]pyrimidin-4-yl)piperazin-2-yl)acetonitrile] | 1 to 1000 |
| C=CC(=O)N1CCN(c2nc(OC[C@@H]3CCCN3C)nc3c2CCN(c2cc(F)ccc2OC(F)(F)F)C3)CC1CC#N (stereo partly drawn) [Example 225, 2-(1-acryloyl-4-(7-(5-fluoro-2-(trifluoromethoxy)phenyl)-2-(((S)-1-methylpyrrolidin-2-yl)methoxy)-5,6,7,8-tetrahydropyrido[3,4-d]pyrimidin-4-yl)piperazin-2-yl)acetonitrile] | 1 to 1000 |
| C=CC(=O)N1CCN(c2nc(OC[C@@H]3CCCN3C)nc3c2CCN(c2cccnc2C(F)(F)F)C3)CC1CC#N (stereo partly drawn) [Example 226, 2-(1-acryloyl-4-(2-(((S)-1-methylpyrrolidin-2-yl)methoxy)-7-(2-(trifluoromethyl)pyridin-3-yl)-5,6,7,8-tetrahydropyrido[3,4-d]pyrimidin-4-yl)piperazin-2-yl)acetonitrile] | 1 to 1000 |
| C=CC(=O)N1CCN(c2nc(OC[C@@H]3CCCN3C)nc3c2CCN(c2ccccc2F)C3)CC1CC#N (stereo partly drawn) [Example 227, 2-(1-acryloyl-4-(7-(2-fluorophenyl)-2-(((S)-1-methylpyrrolidin-2-yl)methoxy)-5,6,7,8-tetrahydropyrido[3,4-d]pyrimidin-4-yl)piperazin-2-yl)acetonitrile] | 1 to 1000 |
| C=CC(=O)N1CCN(c2nc(OC[C@@H]3CCCN3C)nc3c2CCN(c2cccc(C)c2C)C3)CC1CC#N (stereo partly drawn) [Example 228, 2-(1-acryloyl-4-(7-(2,3-dimethylphenyl)-2-(((S)-1-methylpyrrolidin-2-yl)methoxy)-5,6,7,8-tetrahydropyrido[3,4-d]pyrimidin-4-yl)piperazin-2-yl)acetonitrile] | 1 to 1000 |
| C=CC(=O)N1CCN(c2nc(OC[C@@H]3CCCN3C)nc3c2CCN(c2ccccc2Cl)C3)CC1CC#N (stereo partly drawn) [Example 229, 2-(1-acryloyl-4-(7-(2-chlorophenyl)-2-(((S)-1-methylpyrrolidin-2-yl)methoxy)-5,6,7,8-tetrahydropyrido[3,4-d]pyrimidin-4-yl)piperazin-2-yl)acetonitrile] | 1 to 1000 |
| C=CC(=O)N1CCN(c2nc(OC[C@@H]3CCCN3C)nc3c2CCN(c2cccc(F)c2C(F)(F)F)C3)CC1CC#N (stereo partly drawn) [Example 230, 2-(1-acryloyl-4-(7-(3-fluoro-2-(trifluoromethyl)phenyl)-2-(((S)-1-methylpyrrolidin-2-yl)methoxy)-5,6,7,8-tetrahydropyrido[3,4-d]pyrimidin-4-yl)piperazin-2-yl)acetonitrile] | 1 to 1000 |
| C=CC(=O)N1CCN(c2nc(OC[C@@H]3CCCN3CC)nc3c2CCN(c2cccc4ccccc24)C3)CC1CC#N (stereo partly drawn) [Example 233, 2-(1-acryloyl-4-(2-(((S)-1-ethylpyrrolidin-2-yl)methoxy)-7-(naphthalen-1-yl)-5,6,7,8-tetrahydropyrido[3,4-d]pyrimidin-4-yl)piperazin-2-yl)acetonitrile] | 1 to 1000 |
| CN(C)C/C=C/C(=O)N1CCN(c2nc(OC[C@@H]3CCCN3C)nc3c2CCN(c2cccc4ccccc24)C3)C[C@@H]1CC#N [Example 235, 2-((S)-1-((E)-4-(dimethylamino)but-2-enoyl)-4-(2-(((S)-1-methylpyrrolidin-2-yl)methoxy)-7-(naphthalen-1-yl)-5,6,7,8-tetrahydropyrido[3,4-d]pyrimidin-4-yl)piperazin-2-yl)acetonitrile] | 1 to 1000 |
| CN1CCC[C@H]1COc1nc2c(c(N3CCN(C(=O)/C=C/CN4CCCCC4)[C@@H](CC#N)C3)n1)CCN(c1cccc3ccccc13)C2 [Example 236, 2-((S)-4-(2-(((S)-1-methylpyrrolidin-2-yl)methoxy)-7-(naphthalen-1-yl)-5,6,7,8-tetrahydropyrido[3,4-d]pyrimidin-4-yl)-1-(E-4-(piperidin-1-yl)but-2-enoyl)piperazin-2-yl)acetonitrile] | 1 to 1000 |
| C=CC(=O)N1CCN(c2nc(OC[C@@H]3CCCN3C)nc3c2CCN(c2ccccc2C(F)(F)F)C3)C[C@@H]1CC#N [Example 237, 2-((S)-1-acryloyl-4-(2-(((S)-1-methylpyrrolidin-2-yl)methoxy)-7-(2-(trifluoromethyl)phenyl)-5,6,7,8-tetrahydropyrido[3,4-d]pyrimidin-4-yl)piperazin-2-yl)acetonitrile 2,2,2-trifluoroacetate] | 1 to 1000 |
| C=CC(=O)N1CCN(c2nc(OC[C@@H]3CCCN3C)nc3c2CCN(c2c(C)ccc4cn[nH]c24)C3)CC1CC#N (stereo partly drawn) [Example 238, 2-(1-acryloyl-4-(7-(6-methyl-1H-indazol-7-yl)-2-(((S)-1-methylpyrrolidin-2-yl)methoxy)-5,6,7,8-tetrahydropyrido[3,4-d]pyrimidin-4-yl)piperazin-2-yl)acetonitrile] | 1 to 1000 |
| C=CC(=O)N1CCN(c2nc(OC[C@H]3CCCN3C)nc3c2CCN(c2c(C(F)(F)F)ccc4[nH]ncc24)C3)CC1CC#N (stereo partly drawn) [Example 243, 2-[4-[2-[[(2R)-1-methylpyrrolidin-2-yl]methoxy]-7-[5-(trifluoromethyl)-1H-indazol-4-yl]-6,8-dihydro-5H-pyrido[3,4-d]pyrimidin-4-yl]-1-prop-2-enoyl-piperazin-2-yl]acetonitrile] | 1 to 1000 |
| C=CC(=O)N1CCN(c2nc(OC[C@@H]3CCCN3C)nc3c2CCN(c2ccc(F)c4ccccc24)C3)CC1CC#N (stereo partly drawn) [Example 246, 2-[4-[7-(4-fluoro-1-naphthyl)-2-[[(2S)-1-methylpyrrolidin-2-yl]methoxy]-6,8-dihydro-5H-pyrido[3,4-d]pyrimidin-4-yl]-1-prop-2-enoyl-piperazin-2-yl]acetonitrile] | 1 to 1000 |
| C=CC(=O)N1CCN(c2nc(OC[C@@H]3CCCN3C)nc3c2CCN(c2cccc4cc(F)ccc24)C3)CC1CC#N (stereo partly drawn) [Example 259, 2-[4-[7-(6-fluoro-1-naphthyl)-2-[[(2S)-1-methylpyrrolidin-2-yl]methoxy]-6,8-dihydro-5H-pyrido[3,4-d]pyrimidin-4-yl]-1-prop-2-enoyl-piperazin-2-yl]acetonitrile] | 1 to 1000 |
